Reference: BindingDB's records for doi:10.7270/Q2MP51PC (Pcmd, 2008)

Target: T1, Complement C1s subcomponent (Homo sapiens, UniProt P09871)
T1 sequence (P09871 whole entry): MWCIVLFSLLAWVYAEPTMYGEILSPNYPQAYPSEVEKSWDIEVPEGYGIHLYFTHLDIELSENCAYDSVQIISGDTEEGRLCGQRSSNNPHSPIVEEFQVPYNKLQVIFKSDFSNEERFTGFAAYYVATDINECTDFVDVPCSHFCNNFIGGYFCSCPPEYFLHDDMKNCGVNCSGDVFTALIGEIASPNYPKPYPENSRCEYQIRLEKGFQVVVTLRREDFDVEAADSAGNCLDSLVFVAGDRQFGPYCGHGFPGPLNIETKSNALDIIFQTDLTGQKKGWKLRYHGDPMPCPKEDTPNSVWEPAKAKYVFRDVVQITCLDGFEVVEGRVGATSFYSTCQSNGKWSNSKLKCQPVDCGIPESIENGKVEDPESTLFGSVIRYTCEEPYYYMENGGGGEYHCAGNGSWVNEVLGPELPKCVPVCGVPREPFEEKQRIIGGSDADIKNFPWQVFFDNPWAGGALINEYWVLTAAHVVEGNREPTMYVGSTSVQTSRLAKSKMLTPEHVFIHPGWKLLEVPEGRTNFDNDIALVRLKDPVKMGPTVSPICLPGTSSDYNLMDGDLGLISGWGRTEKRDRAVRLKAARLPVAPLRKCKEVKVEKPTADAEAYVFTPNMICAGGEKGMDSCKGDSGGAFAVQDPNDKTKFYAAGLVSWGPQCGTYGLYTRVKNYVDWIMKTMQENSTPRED
Assay: concentration-response of complement C1s inhibitors – biochemical, dose response (AID 787)

IC50 [µM] | SMILES
8.54 | CCOC(=O)c1c(C)n(C(=O)c2ccco2)c(=O)n1C(=O)c1ccco1
0.85 | O=C(c1ccc2c(c1)OCO2)n1nnc2ccccc21
> 50 | O=C(O)[C@@H](c1ccccc1)N1Cc2ccccc2C1=O
> 50 | COc1cccc(C2=Nc3nnnn3C(c3cccc(OC)c3OC)C2)c1 (stereo not given)
> 50 | CCN1CCN(c2ccc(-n3c(C)nc4c(cnn4-c4ccccc4Cl)c3=O)cc2)CC1 [1-(2-chlorophenyl)-5-[4-(4-ethyl-1-piperazinyl)phenyl]-6-methyl-4-pyrazolo[3,4-d]pyrimidinone]
> 50 | CCOC(=O)C1CCN(C(=O)c2cc(OCC)c(OCC)c(OCC)c2)CC1 [1-(3,4,5-triethoxybenzoyl)isonipecotic acid ethyl ester]
3.83 | O=C(c1csc2c1CCCC2)n1cccn1 [1-(4,5,6,7-tetrahydro-1-benzothien-3-ylcarbonyl)-1H-pyrazole]
> 50 | CCOC(=O)c1nnn(-c2nonc2N)c1CN(C)C1CCCCC1 [1-(4-amino-1,2,5-oxadiazol-3-yl)-5-[[cyclohexyl(methyl)amino]methyl]-4-triazolecarboxylic acid ethyl ester]
> 50 | CCOc1ccc(-n2c(O)cc(N3CCN(c4ccccc4F)CC3)c2O)cc1 [1-(4-ethoxyphenyl)-3-[4-(2-fluorophenyl)-1-piperazinyl]-2,5-pyrrolidinedione]
> 50 | Cc1ccc(Cn2ncc3c(N4CCN(c5ccccc5C)CC4)ncnc32)cc1 [1-(4-methylbenzyl)-4-[4-(2-methylphenyl)-1-piperazinyl]-1H-pyrazolo[3,4-d]pyrimidine]
> 50 | COc1cc(-c2nnc(SCC(=O)c3cc(C)n(CC4CCCO4)c3C)o2)cc(OC)c1OC (stereo not given) [1-[2,5-dimethyl-1-(2-oxolanylmethyl)-3-pyrrolyl]-2-[[5-(3,4,5-trimethoxyphenyl)-1,3,4-oxadiazol-2-yl]thio]ethanone]
> 50 | CCC(=O)n1nc(-c2ccco2)nc1SCc1ccccc1 [1-[3-(2-furanyl)-5-(phenylmethylthio)-1,2,4-triazol-1-yl]-1-propanone]
> 50 | O=C(Nc1cccc(F)c1)c1c(F)c(F)c(F)c(F)c1F [2,3,4,5,6-pentafluoro-N-(3-fluorophenyl)benzamide]
> 50 | O=C1CCCC2=NC(Nc3nc4ccccc4o3)=NC3(CCCCC3)C12 (stereo not given) [2-(1,3-benzoxazol-2-ylamino)-5-spiro[1,6,7,8-tetrahydroquinazoline-4,1'-cyclohexane]one]
> 50 | COCCn1c(C)cc(C(=O)CSc2nc3ccccc3o2)c1C [2-(1,3-benzoxazol-2-ylsulfanyl)-1-[1-(2-methoxyethyl)-2,5-dimethyl-pyrrol-3-yl]ethanone]
> 50 | Cc1sc2nc(-c3ccco3)oc(=O)c2c1C [2-(2-furanyl)-5,6-dimethyl-4-thieno[2,3-d][1,3]oxazinone]
> 50 | Cc1c(NC(=O)C2Cc3ccccc3CN2C(=O)c2ccco2)c(=O)n(-c2ccccc2)n1C (stereo not given) [2-(2-furoyl)-N-(3-keto-1,5-dimethyl-2-phenyl-3-pyrazolin-4-yl)-3,4-dihydro-1H-isoquinoline-3-carboxamide]
> 50 | Cc1cc(NS(=O)(=O)c2ccc(NC(=O)COc3ccccc3C(C)C)cc2)no1 [2-(2-isopropylphenoxy)-N-[4-[(5-methylisoxazol-3-yl)sulfamoyl]phenyl]acetamide]
> 50 | COc1ccc(CC(=O)Nc2cccc(-c3nnc(-c4cccc(C)c4)o3)c2)cc1OC [2-(3,4-dimethoxyphenyl)-N-[3-[5-(3-methylphenyl)-1,3,4-oxadiazol-2-yl]phenyl]acetamide]
> 50 | CN(C)c1ccc(C(=O)c2ccccc2C(=O)O)c(O)c1 [2-(4-Dimethylamino-2-hydroxy-benzoyl)-benzoic acid]
4.62 | O=c1oc(-c2ccco2)nc2ccccc12 [2-Furan-2-yl-benzo[d][1,3]oxazin-4-one]
> 50 | CC(C)(C)NC(=O)C(c1ccco1)N(Cc1ccc2c(c1)OCO2)C(=O)Cn1nnc2ccccc21 (stereo not given) [2-[1,3-benzodioxol-5-ylmethyl-[2-(1-benzotriazolyl)-1-oxoethyl]amino]-N-tert-butyl-2-(2-furanyl)acetamide]
> 50 | CCOC(=O)COc1ccc(S(=O)(=O)NCCC2=CCCCC2)cc1 [2-[4-[2-(1-cyclohexenyl)ethylsulfamoyl]phenoxy]acetic acid ethyl ester]
> 50 | O=C(CN1CCN(CC(=O)Nc2ccccn2)CC1)Nc1ccccn1 [2-[4-[2-keto-2-(2-pyridylamino)ethyl]piperazino]-N-(2-pyridyl)acetamide]
> 50 | Cc1ccc(-n2c(SCC(=O)N3CCCC3)nc3c(c2=O)SCC3)cc1 [2-[(2-keto-2-pyrrolidino-ethyl)thio]-3-(p-tolyl)-6,7-dihydrothieno[3,2-d]pyrimidin-4-one]
> 50 | CCOC(=O)COc1nc(OC)nc(N2CCOCC2)n1 [2-[(4-methoxy-6-morpholino-s-triazin-2-yl)oxy]acetic acid ethyl ester]
> 50 | CCOC(=O)c1c(-c2ccc(C)o2)csc1NC(=O)CN1CCN(CC)CC1 [2-[[2-(4-ethyl-1-piperazinyl)-1-oxoethyl]amino]-4-(5-methyl-2-furanyl)-3-thiophenecarboxylic acid ethyl ester]

Continued, compound first:

SMILES | IC50 [µM]
Cc1ccc(S(=O)(=O)n2nc(OC(=O)c3cccs3)cc2N)cc1 | > 50
C#CCOC(=O)c1ccccc1C(=O)n1nnc2ccccc21 | 4.26
CCSc1ccccc1C(=O)n1nnc2ccccc21 | 31
O=C(O)COCc1nc2ccccc2[nH]1 | > 50
COc1cccc(N2C(=O)N(c3ccccc3Cl)C3CS(=O)(=O)CC32)c1 (stereo not given) [1-(2-chlorophenyl)-3-(3-methoxyphenyl)tetrahydro-1H-thieno[3,4-d]imidazol-2(3H)-one 5,5-dioxide] | > 50
COc1ccc(-c2nc(SC)n(C(=O)c3ccco3)n2)cc1 [1-(2-furoyl)-3-(4-methoxyphenyl)-5-(methylthio)-1H-1,2,4-triazole] | 15.6
O=C(c1ccco1)N1C(=O)c2cccc3cccc1c23 [1-(2-furoyl)benzo[cd]indol-2(1H)-one] | > 50
CC(C)CN(CC(C)C)S(=O)(=O)N1CCC(C(=O)NCc2ccc(F)cc2)CC1 [1-(diisobutylsulfamoyl)-N-(4-fluorobenzyl)isonipecotamide] | > 50
CCOC(=O)C1CCN(C(=O)CSc2ccccc2)CC1 [1-[1-oxo-2-(phenylthio)ethyl]-4-piperidinecarboxylic acid ethyl ester] | > 50
CCCC(=O)n1nc(-c2ccco2)nc1SCc1ccccc1 [1-[3-(2-furanyl)-5-(phenylmethylthio)-1,2,4-triazol-1-yl]-1-butanone] | > 50
COc1ccc(C(=O)n2nnc3ccccc32)cc1Br [1-benzotriazolyl-(3-bromo-4-methoxyphenyl)methanone] | 5.59
Cn1c(=O)c2[nH]c(NCC3CCCO3)nc2n(-c2ccccc2)c1=O (stereo not given) [1-methyl-8-(2-oxolanylmethylamino)-3-phenyl-7H-purine-2,6-dione] | > 50
Cc1nc(CNS(=O)(=O)c2cc(C)c(C)cc2C)cs1 [2,4,5-trimethyl-N-[(2-methyl-1,3-thiazol-4-yl)methyl]benzenesulfonamide] | > 50
CC(=O)c1cn(CC(=O)NCc2ccc3c(c2)OCO3)c2ccccc12 [2-(3-acetyl-1-indolyl)-N-(1,3-benzodioxol-5-ylmethyl)acetamide] | > 50
COC(=O)COc1cccc(NC(=O)c2ccccc2)c1 [2-(3-benzamidophenoxy)acetic acid methyl ester] | > 50
Cc1cc(C)c2c(CC(=O)NCc3ccco3)coc2c1 [2-(4,6-dimethyl-1-benzofuran-3-yl)-N-(2-furylmethyl)acetamide] | > 50
O=C(O)CCCC(=O)Nc1ccccc1C(=O)O [2-(4-carboxybutanoylamino)benzoic acid] | > 50
COc1ccc(NC(=O)CSC2CCCCC2)cc1 [2-(cyclohexylthio)-N-(4-methoxyphenyl)acetamide] | > 50
O=C(Cc1ccc(-c2ccccc2)cc1)NCCN1CCOCC1 [2-Biphenyl-4-yl-N-(2-morpholin-4-yl-ethyl)-acetamide] | > 50
Cc1nn(C)c(C)c1NC(=O)c1ccnn1C [2-Methyl-2H-pyrazole-3-carboxylic acid (1,3,5-trimethyl-1H-pyrazol-4-yl)-amide] | > 50
CCOc1ccc(NC(=O)CN2CCN(CC(=O)Nc3ccc4c(c3)OCO4)CC2)cc1 [2-[4-[2-(1,3-benzodioxol-5-ylamino)-2-keto-ethyl]piperazino]-N-p-phenetyl-acetamide] | > 50
CCOC(=O)Cc1nnc(NC(=O)C(CC)Sc2nnc3c4ccccc4n(C)c3n2)s1 (stereo not given) [2-[5-[2-[(5-methyl-[1,2,4]triazin[5,6-b]indol-3-yl)thio]butanoylamino]-1,3,4-thiadiazol-2-yl]acetic acid ethyl ester] | > 50
COC(=O)Cc1n[nH]c2c1C1(C(=O)N(Cc3ccccc3)c3ccccc31)C(C#N)C(=N)O2 (stereo not given) [2-[6-amino-5-cyano-2'-oxo-1'-(phenylmethyl)-3-spiro[2H-pyrano[2,3-c]pyrazole-4,3'-indole]yl]acetic acid methyl ester] | > 50
